Values joined by “and” are separate entries in the source; they are usually repeats but may differ in a detail not shown here. Equal entries are not always repeated. Where two headings read alike, the source gives them in different places. Blank lines part the entries; values can stand above or below the molecule they belong to.
What was measured:
AhR = biological target: T1, AhR (Homo sapiens, UniProt P35869); assay: AhR reporter assay, HepG2 cells stably expressing pCYP1A1 luciferase (AZ-AHR); type: cell-based; details: human; AZ-AHR cells, positive control, fold vs UT, concentration not given
T1 construct: endogenous in cells; host or cells: AZ-AHR (HepG2)
T1 sequence (P35869 11-848): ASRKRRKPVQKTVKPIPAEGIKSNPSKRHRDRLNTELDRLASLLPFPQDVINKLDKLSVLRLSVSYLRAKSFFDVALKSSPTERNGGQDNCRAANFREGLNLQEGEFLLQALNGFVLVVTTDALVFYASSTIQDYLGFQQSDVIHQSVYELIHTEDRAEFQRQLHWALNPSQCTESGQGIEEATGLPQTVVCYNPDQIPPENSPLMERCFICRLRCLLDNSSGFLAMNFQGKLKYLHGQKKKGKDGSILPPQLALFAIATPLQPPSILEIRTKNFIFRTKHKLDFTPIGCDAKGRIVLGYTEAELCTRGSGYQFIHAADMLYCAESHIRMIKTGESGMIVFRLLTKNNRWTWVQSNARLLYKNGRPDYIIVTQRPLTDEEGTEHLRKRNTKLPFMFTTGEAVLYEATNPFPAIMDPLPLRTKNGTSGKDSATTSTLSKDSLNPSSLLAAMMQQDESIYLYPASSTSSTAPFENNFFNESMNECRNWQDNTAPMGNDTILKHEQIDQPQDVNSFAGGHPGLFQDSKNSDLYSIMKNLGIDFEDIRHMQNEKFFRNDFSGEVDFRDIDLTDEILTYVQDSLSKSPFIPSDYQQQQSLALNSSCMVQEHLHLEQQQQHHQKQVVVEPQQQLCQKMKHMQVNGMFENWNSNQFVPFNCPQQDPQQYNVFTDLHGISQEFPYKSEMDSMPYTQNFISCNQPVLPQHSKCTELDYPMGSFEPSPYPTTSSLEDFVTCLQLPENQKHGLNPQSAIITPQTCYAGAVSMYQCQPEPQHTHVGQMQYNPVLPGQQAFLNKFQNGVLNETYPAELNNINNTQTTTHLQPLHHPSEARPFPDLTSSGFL
Description: Incubations were performed in four technical replicates.

[1] = test system: CYP1A1, CYP3A4, MDR1 mRNA in HepaRG cells; details: for 1A1 mRNA fold to C: normalised to GAPDH, fold vs UT
Description: Caco‐2 cells were purchased from ATCC, and authenticity was validated by multiplexed STR DNA (short tandem repeat deoxyribonucleic acid) profiling performed by Genetica. […] Cells were maintained at 37°C and 5% CO2 in a humidified incubator. […] Three HepaRG™‐derived cell lines, including 5F Clone control cells, and cells with targeted functional PXR and AhR gene knockouts, PXR‐KO and AhR‐KO, respectively, were purchased from Sigma (Czech Republic). Cells were handled according to the manufacturer's protocol. Human hepatocytes were purchased from Biopredic International (France) and Triangle Research Labs, LLC, Lonza (USA). Cultures were maintained in serum‐free medium at 37°C and 5% CO2 in a humidified incubator.
The measurements were performed in triplicate.

[2] = test system: CYP1A1, CYP3A4, MDR1 mRNA in primary human hepatocytes; assay: qRT-PCR of CYP1A1, CYP3A4, MDR1 mRNA in primary human hepatocytes (four donors); details: for CYP1A1 (1A1) mRNA, fold to C: primary human hepatocytes, fold vs untreated (UT)
Description: (§1) Cells or primary human hepatocytes from four different donors (HEP200529, HEP220932, HEP200533, and HEP200538) were incubated for 24 h with test compounds; the vehicle was DMSO (0.1% v/v). Total RNA was isolated using TRI Reagent® (Molecular Research Center, Ohio, USA). cDNA was synthesized from 1,000 ng of total RNA using M‐MuLV Reverse Transcriptase (New England Biolabs, Ipswich, Massachusetts, USA) at 42°C for 60 min in the presence of random hexamers (New England Biolabs). Quantitative reverse transcriptase–polymerase chain reaction (qRT–PCR) was performed using LightCycler® 480 Probes Master on a LightCycler® 480 II apparatus (Roche Diagnostic Corporation).
(§2) The following protocol was used: An activation step at 95°C for 10 min was followed by 45 cycles of PCR (denaturation at 95°C for 10 s; annealing with elongation at 60°C for 30 s). The measurements were performed in triplicate. Gene expression was normalized per GAPDH as a housekeeping gene. […] Data are expressed as fold induction ± SD over the vehicle‐treated cells. The bar graph depicts one representative experiment of a series of experiments performed in three consecutive passages of cells. Differences were tested using one‐way ANOVA with Dunnett's post hoc test, and P < 0.05 was considered significant.

[3] = test system: CYP1A1, CYP3A4, MDR1 mRNA in LS180 cells; assay: qRT-PCR of CYP1A1, CYP3A4, MDR1 mRNA in LS180 cells with or without (mock) transfected PXR; details: normalised to GAPDH, fold to UT control
Description: as §1, §2

hPXR-LBD (PXR.1) = biological target: T2, hPXR-LBD (PXR.1) (Homo sapiens, UniProt O75469); assay: Isothermal titration calorimetry with His-tagged hPXR-LBD; type: binding
T2 construct: made in house; host or cells: E. coli BL21-Gold
T2 sequence (O75469 146-433 limits assumed): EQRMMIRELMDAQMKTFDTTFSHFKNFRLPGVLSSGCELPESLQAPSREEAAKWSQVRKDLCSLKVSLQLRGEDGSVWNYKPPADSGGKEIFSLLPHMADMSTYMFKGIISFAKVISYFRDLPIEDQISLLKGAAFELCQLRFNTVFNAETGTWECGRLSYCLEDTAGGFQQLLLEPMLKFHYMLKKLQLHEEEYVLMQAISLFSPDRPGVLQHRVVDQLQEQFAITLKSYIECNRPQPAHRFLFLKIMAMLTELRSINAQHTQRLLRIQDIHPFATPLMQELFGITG
Description: The cloning, expression, and purification of His‐tagged PXR‐LBD were performed as previously published (Wallace et al, 2013) with the following modifications: For protein expression, Luria–Bertani (LB) media were inoculated with a saturated culture of BL21‐Gold cells transformed with HIS‐LIC plasmid containing the PXR‐LBD construct. The mixture was allowed to shake at 37°C until the cells reached an OD600 ~ 0.6, and then, the temperature was reduced to 18°C, at which time IPTG was added (final concentration of 0.1 mM) to induce protein expression. For purification, the His‐tag was not removed, and the uncleaved protein was loaded onto the gel filtration column with buffer containing HEPES (4‐(2‐hydroxyethyl)‐1‐piperazineethanesulfonic acid) (25 mM, pH 7.5) and NaCl (150 mM).
Isothermal titration calorimetry (ITC) was carried out using a VP‐ITC microcalorimeter from MicroCal⁄Malvern Instruments (Northampton, MA, USA). […] In all the experiments, the ligand solution was injected in 10 μl aliquots into the calorimetric cell containing PXR‐LBD (ligand‐binding domain) at a concentration of 3–6 μM. […] The experiments were carried out at 37°C. The heat evolved upon each injection of the ligands was obtained from the integral of the calorimetric signal. The heat associated with binding to PXR‐LBD in the cell was obtained by subtracting the heat of dilution from the heat of reaction.

NF-κB = assay: TNF-α-induced NF-κB reporter assay in LS174T PXR-KO cells; details: LS174T PXR-KO, EXP3; 10 μM + TNFα 5 ng/ml; TNFa 5 ng/ml = 100; listed as RIF
From the text: In early passage PXR‐KO cells, we used PXR and NF‐κB reporter‐co‐transfected and NF‐κB reporter‐transfected PXR‐KO cell line.
CRISPR/Cas9‐mediated knockout cells were generated by Synthego Corporation (Redwood City, CA, USA). Briefly, cells were first tested negative for mycoplasma. Guide RNA was selected for high activity, specificity, and activity to create premature stop codons through frameshift mutations in the coding region via insertions and/or deletions (Indels) within exon 2 of the gene encoding human PXR (NR1I2 transcript ID ENST00000337940). […] To generate these cells, ribonucleoproteins (RNPs) containing the Cas9 protein and synthetic chemically modified sgRNA (Synthego) were electroporated into the cells using Synthego's optimized protocol. Editing efficiency is assessed upon recovery, 48 h post‐electroporation. Genomic DNA is extracted from a portion of the cells, PCR‐amplified, and sequenced using Sanger sequencing. The resulting chromatograms are processed using Synthego Inference of CRISPR Edits software (ice.synthego.com).

Compound: Clc1cc2c(cc1Cl)Oc1cc(Cl)c(Cl)cc1O2 [TCDD, 2,3,7,8‐tetrachlorodibenzo‐p‐dioxin, reference compound]
fold induction at 24 h (AhR): 485
1A1 mRNA fold to C ([1]; HepaRG AHR-KO): 1.24 fold
1A1 mRNA fold to C ([1]; HepaRG CONTROL 5F Clone): 151.69 fold
CYP1A1 (1A1) mRNA, fold to C ([1]; HepaRG PXR-KO cells, qRT-PCR normalised to GAPDH, fold vs untreated (UT)): 338.18 fold
CYP1A1 mRNA induction ([1]; HepaRG control 5F clone, PXR-KO, AhR-KO): induces
CYP1A1 mRNA induction ([2]; four donors): induced CYP1A1 mRNA in all cells
CYP1A1 mRNA fold to C ([2]; primary human hepatocytes donor Hep200538, normalised to GAPDH, fold to UT control): 10734.74
CYP1A1 (1A1) mRNA, fold to C ([2]; donor Hep200529, normalised to GAPDH): 394.35 fold
CYP1A1 (1A1) mRNA, fold to C ([2]; donor Hep200533, normalised to GAPDH): 1246.21 fold
CYP1A1 (1A1) mRNA, fold to C ([2]; donor Hep220932, normalised to GAPDH): 962.07 fold
CYP1A1 mRNA fold to C ([3]; PXR-transfected LS180 cells): 1299.13
CYP1A1 mRNA fold to C ([3]; mock-transfected LS180 cells): 2347.10

thermal signature of interaction with hPXR-LBD (hPXR-LBD (PXR.1)): did not induce a thermal signature
Compound: O=C(O)CCc1c[nH]c2ccccc12 [IPA, indole‐3‐propionic acid, reference compound]

NFkB %max (NF-κB): 94.8% and 94.84%
Compound: CO[C@H]1/C=C/O[C@@]2(C)Oc3c(C)c(O)c4c(O)c(c(/C=N/N5CCN(C)CC5)c(O)c4c3C2=O)NC(=O)/C(C)=C\C=C\[C@H](C)[C@H](O)[C@@H](C)[C@@H](O)[C@@H](C)[C@H](OC(C)=O)[C@@H]1C [Rifampicin, reference compound]

From paper PMC7136958, “Targeting the pregnane X receptor using microbial metabolite mimicry” (EMBO Molecular Medicine, 2020)
